Results reported in US8993626B2, “Methods of treatment using sterculic acid” (The United States of America, as represented by the …, priority 2010, dated 2015).

Key:
[1] = system: ARPE19 cells; assay: Microelectronic cell sensor assay (RT-CES), 7KCh-induced cytotoxicity; conditions: 1 μM fatty acid + 15 μM 7KCh, serum free media
Procedure: 4×10^4 cells were seeded onto wells of 16× microtiter plates. […] Cell viability was determined as a cell index (CI) calculated from the impedance of each well automatically by the RT-CES system once per hr until the end of the experiment. The data was normalized at the point immediately prior to compound treatment.
RT-CES® System is a cell-based assay system that monitors cellular events by measuring the electronic impedance of sensor electrodes integrated on the bottom of microtiter E-Plates. The presence of the cells will lead to an increase in the electrode impedance. The more cells attached to the sensor, the higher the impedance that could be monitored with RT-CES.
1) Cells were cultivated in the ACEA's 16X E-plate device containing microelectrodes at the bottom of each well to measure contact area and electrical properties of adherent cells. […]
4) Cell growth was monitored periodically (every 1 hr) for indicated durations via calculation of a “cell index” (reflect to the surface area covered by the cells) in each well. […]
6) The sensor devices were put into the incubator again and the cells were continuously monitored cellular status changes.
7) Cell viability was determined as a cell index (CI) calculated from the impedance of each well automatically by the RT-CES system once per hr until the end of the experiment. […]

[2] = system: laser-induced CNV; assay: Laser-induced choroidal neovascularization (CNV) rat model; type: in vivo, Brown Norway rats; conditions: day 7
Procedure: FIG. 2 depicts the results of choroidal neovascularization (CNV) suppression after a single intravitreal injection 48 hours after laser exposure. Box-and-whisker plot representations of volume of CNV lesions from rats treated with a single intravitreal injection as indicated in the x-axis. The y-axis represents neovessel lesion volume expressed in cubic microns. The number of lesions evaluated per condition (n) is depicted in the graph. Values inside of the box represent the central 50% of measurements. The horizontal line inside the box corresponds to the median values, and the vertical lines outside the boxes correspond to variances of measurements. *Highly significant difference compared with oleic acid and PBS.
FIG. 3 depicts the results of daily application of sterculic acid-containing drops to suppress laser-induced CNV. (A) Representative flat-mount projections from confocal microscope Z-series 7 days after laser. The red channel identifies vessels (Isolectin IB-4). Conditions are indicated above each projection. (B) Box-and-whisker plot representations of volume of CNV lesions from rats treated with daily drops as indicated in the x-axis. The y-axis represents neovessel lesion volume expressed in cubic microns. The number of lesions evaluated per condition (n) is depicted in the graph. Values inside of the box represent the central 50% of measurements. […]
FIG. 4 depicts the dose response of CNV suppression after daily application of sterculic acid-containing drops after laser exposure. […] The number of lesions evaluated per condition (n) is depicted in the graph. […]
Laser-induced CNV, flat mount preparations, and lesion evaluations were performed following established methods. […] Neovessels were visualized with confocal microscopy using choroid/RPE flat mounts labelled with Alexa Fluor 568-Isolectin IB4 to identify endothelial cells and neovessel volumes were quantified using VOLOCITY software. […]

[3] = system: ARPE-19 cells; assay: qRT-PCR of cytokines in TNF-α treated cells; type: cell-based
Procedure: FIGS. 17A-17D depict the mRNA expressions of (A) IL-1β, (B) IL-8, (C) IκBα, and (D) GRP78 in response to 2 ng/ml TNF-α, 1 μM sterculic acid, 1 μM stearic acid, or the combinations of TNF-α with either sterculic acid or stearic acid. n=3. Error bars indicate the standard deviations.
Tumor necrosis factor-alpha (TNF-α, Roche Diagnostics, Indianapolis, Ind.) was diluted in PBS to make 10 μg/ml stock solution and stored at −20° C. In order to test the anti-inflammation effect of fatty acids against TNF-α, ARPE-19 cells were treated with 2 ng/ml of TNF-α for 24 hr in serum-free medium with or without 1 μM fatty acids. The mRNA expressions of cytokines were then examined using qRT-PCR. Each treatment was performed three times with quadruplicate measurements in each experiment, in 24-well plates.
(§1) The RNA was extracted using RNeasy Mini Kit (Qiagen, Valencia, Calif.). The reverse transcription was performed with reagents and kits from Invitrogen. Quantification of mRNA expression was performed using the Taqman gene expression assays and the following primers (VEGFa, Hs00173626_m1; IL-1β, Hs01555413_m1; IL-6, Hs00174131_m1; IL-8, Hs00174103_m1; IκBα, Hs00153283_m1; GRP78, Hs99999174_m1; CHOP, Hs01090850_m1; NOX2, Hs00166163_m1; NOX4, Hs01558199_m1; SCD, Hs00748952 s1; TNF-α, Hs00174128_m1; TGF-β1, Hs00998133_m1; GAPD, 4352934e). GAPD expression was used as an endogenous standard. All qRT-PCR experiments were measured in triplicates in an ABI 7500 Real-Time PCR Instrument (Applied Biosystems, Foster City, Calif.). The results of each treatment were normalized and presented in percentage relative to the vehicle-only control.

[4] = system: stearoyl-CoA desaturase (SCD); assay: SCD mRNA expression (qRT-PCR); type: cell-based
Procedure: FIGS. 18A and 18B depict (A) Dose response of SCD mRNA inductions by 0-12 μM 7KCh after 24 hr treatments. (B) The mRNA expressions of SCD in response to 8 μM 7KCh, 1 μM sterculic acid, 1 μM stearic acid, or the combinations of 7KCh with either sterculic acid or stearic acid. Error bars indicate the standard deviations. n=4.
as §1
To determine the effect of 7KCh on SCD expression ARPE-19 cells were incubated with 4 μM 7KCh for 24 hr. 7KCh suppressed SCD mRNA expression by approximately 60-70% (FIG. 18A). […] Treatment of the cells with 8 μM 7KCh and 1 μM sterculic acid further suppress SCD expression to 86% (FIG. 18B). […] This is the only instance where 7KCh and sterculic acid worked synergistically rather than antagonistically.

Question: CCCCCCCCC1=C(CCCCCCCC(=O)O)C1 [sterculic acid, 8-(2-octacyclopropen-1-yl)octanoic acid] was tested. Which “protection from 7KCh induced cytotoxicity (cell index)” value [1] did it give?
Answer: The value was “markedly protected”.

Question: And the CNV suppression ([2]; daily drops 0.1 mM after laser, compared to PBS)?
Answer: Its CNV suppression is 66%.

Question: What about the CNV suppression ([2]; daily drops 1 mM after laser, compared to oleic acid) of the same compound?
Answer: Its CNV suppression is 45%.

Question: And the CNV suppression ([2]; single intravitreal injection 1 mM in 1 μL, 48 hours after laser, compared to oleic acid and PBS injection)?
Answer: Its CNV suppression is 33%.

Question: What about the “induction of GRP78 mRNA expression” value ([3]; 2 ng/ml TNF-α alone or with 1 μM fatty acid, 24 hr, FIG. 17D) of the same compound?
Answer: The value was “small measurable effect”.

Question: And the “antagonist effect to the cytokine inductions by TNF-α” value ([3]; 1 μM fatty acid + 2 ng/ml TNF-α, 24 hr)?
Answer: Its value is “did not show any antagonist effect”.

Question: And the “antagonist effect to TNF-α at 5 μM” value ([3]; 5 μM, data not shown)?
Answer: The value was “failed to antagonize”.

Question: And the “inhibition of SCD expression” value ([4]; 1 μM sterculic acid alone)?
Answer: Its value is “similarly to 8 μM 7KCh”.

Question: And the “suppression of SCD expression” value ([4]; 8 μM 7KCh and 1 μM sterculic acid)?
Answer: The value was 86%.
